{"source": "patent EP0248597A2", "about": "“Phospholipase A2 inhibitors and methods of synthesis” (ORTHO PHARMACEUTICAL CORPORATION, priority 1986, dated 1987)", "key": {"[1]": {"system": "experimentally-induced inflammation in the mouse ear", "assay": "Mouse ear edema assay (topical anti-inflammatory activity)", "assay_type": "in vivo", "procedure": "Compound 2 was also studied in a mouse ear edema assay to provide a measure of topical anti-inflammatory activity.\nThe topical antiinflammatory activity of a compound is determined by its ability to inhibit an experimentally-induced inflammation in the mouse ear. Croton oil, or 12-0-tetradecanoylphorbol acetate in acetone is dispensed onto the dorsum of one ear of the mouse. Five to six hours later the mice are sacrificed. A section of each ear is removed with a 7 mm cork borer and weighed on a electronic balance. The difference in weight between treated and untreated ears is determined. Compounds to be evaluated for antiinflammatory activity are incorporated in the croton oil irritant mixture, or applied in an appropriate vehicle."}, "[2]": {"molecular_target": "T1, Porcine Pancreas Phospholipase A2 (Sus scrofa, UniProt P00592)", "T1 construct": "purchased Sigma Chemical Co., St. Louis, MO; host or cells: porcine pancreas", "T1 sequence (P00592 23-146)": "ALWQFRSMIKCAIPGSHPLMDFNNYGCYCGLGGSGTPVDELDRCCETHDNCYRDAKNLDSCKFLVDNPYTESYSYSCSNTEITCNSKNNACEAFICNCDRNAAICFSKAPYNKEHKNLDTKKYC", "assay": "Phospholipase A2 assay (hydrolysis of 14C-arachidonyl phosphatidyl choline), porcine pancreas enzyme", "assay_type": "biochemical", "procedure": "(§1) The following procedure is a modification of the Phospholipase A₂ assay that was first described by Costentino et al., Prostaglandins, 22, 309 (1981) and is the method used herein to determine rat stomach and porcine pancreas phospholipas A₂ activity.\n(§2) A suspension of phospholipase A₂ (Sigma Chemical Co., St. Louis, MO) is diluted with 25 millimolar (mM) Tris HCl buffer containing 1 mM calcium chloride to a final concentration of 10 micrograms of protein per milliliter (ml). Aliquots of 0.1 ml (7.1 units) of the enzyme suspension are added to each assay tube. Test compounds are added tin 0.01 ml aliquots in dimethyl sulfoxide or methanol and the volume is brought to 0.15 ml with the buffer. A preincubation is carried out at 37°C for 5 minutes. To start the reaction, 0.01 microcuries (0.179 nanomoles) of 2-arachidonyl (1-¹⁴C) 1-palmitoyl phosphatidyl choline (New England Nuclear, Boston, MA) are added to each tube, including three blank tubes containing no enzyme, and the incubation is carried out for 10 minutes at 37°C. The reaction is stopped with the addition of 0.07 ml of 1N HCl to each tube. Blanks, controls and each concentration of test compound are assayed in triplicate.\n(§3) The reaction mixtures are extracted with ethyl acetate, and the organic and aqueous phases are separated by low speed centrifugation. The organic phase is dried under nitrogen and is then resuspended in 0.01 ml ethyl acetate. Arachidonic acid (50 micrograms in 0.01 ml methanol) is added to each tube as a carrier and standard. The entire mixture is spotted on silica gel G thin layer chromatography plates that are developed in a solvent system of ethyl acetate:acetic acid (99:1 by volume). […] Ten ml of Aquasol-2 (American Cyanamid Co., Wayne, NJ) are added to each vial, and the radioactivity is counted by liquid scintillation spectrometry.\n(§4) The data are calculated as the ratio in percent of unesterified arachidonic acid to total radioactivity recovered. The potency of a compound is preferably determined by its IC₅₀ value (the concentration required to inhibit the reaction by 50 percent). […]"}, "[3]": {"molecular_target": "Rat Stomach Phospholipase A2 (Rattus norvegicus, UniProt P04055)", "sequence (P04055 23-146)": "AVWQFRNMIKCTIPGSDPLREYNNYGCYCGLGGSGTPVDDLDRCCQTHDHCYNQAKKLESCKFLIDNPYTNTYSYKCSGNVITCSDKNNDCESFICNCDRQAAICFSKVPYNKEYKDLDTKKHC", "assay": "Phospholipase A2 assay (hydrolysis of 14C-arachidonyl phosphatidyl choline), rat stomach enzyme", "assay_type": "biochemical", "conditions": "at 10^-4M; read-out: Percent Inhibition of the Hydrolytic Activity of Rat Stomach Phospholipase A2", "procedure": "as §1, §2, §3, §4"}}, "note": "Values joined by “and” are separate entries in the source; they are usually repeats but may differ in a detail not shown here. Equal values may be shown once. Where a name gives a salt, the structure may show the parent alone.", "data": [{"smiles": "CCCCCCCCCCCC/C=C\\[C@@H](SC[C@H](NC(C)=O)C(=O)OC)[C@@H](O)CCCCO", "note": "[Compound 2, Methyl N-acetyl-S-6[(5S,6R)-1,5-dihydroxy-7(Z)-eicosenyl]-(R)-cysteinate]", "values": [{"measurement": "Inhibition (percent) Mouse No. 1", "setting": "[1]; 50 micrograms", "result": 33, "unit": "%"}, {"measurement": "Inhibition (percent) Mouse No. 2", "setting": "[1]; 50 micrograms", "result": 68, "unit": "%"}, {"measurement": "Inhibition (percent) Mouse No. 1", "setting": "[1]; 100 micrograms", "result": 53, "unit": "%"}, {"measurement": "Inhibition (percent) Mouse No. 2", "setting": "[1]; 100 micrograms", "result": 72, "unit": "%"}, {"measurement": "Inhibition (percent) Mouse No. 1", "setting": "[1]; 200 micrograms", "result": 62, "unit": "%"}, {"measurement": "Inhibition (percent) Mouse No. 2", "setting": "[1]; 200 micrograms", "result": 82, "unit": "%"}, {"measurement": "Inhibition (percent) Mouse No. 1", "setting": "[1]; 400 micrograms", "result": 75, "unit": "%"}, {"measurement": "Inhibition (percent) Mouse No. 2", "setting": "[1]; 400 micrograms", "result": 80, "unit": "%"}, {"measurement": "Percent Inhibition of the Hydrolytic Activity of Porcine Pancreas Phospholipase A2", "setting": "[2]; at 10^-5 Molar (M), three independent trials, 10 µM", "result": "62% and 86% and 68%"}]}, {"smiles": "CCCCCCCCCCCC/C=C\\[C@@H](SC[C@H](NC(=O)CC[C@H](N)C(=O)O)C(=O)NCC(=O)O)[C@@H](O)CCCCOC1CCCCO1", "note": "(stereo partly drawn) [Compound 3, S-6-[(5S,6R)-5-hydroxy-1-(2-tetrahydropyranyloxy)-7(Z)-eicosenyl] glutathione triethylammonium salt dihydrate]", "values": [{"measurement": "inhibition at 100 µM", "setting": "[3]", "result": 55, "unit": "%"}]}, {"smiles": "CCCCCCCCCCCC/C=C\\[C@@H](SC[C@H](N)C(=O)O)[C@@H](O)CCCCO", "note": "[Compound 4, (5S,6R)-6-[S-(R)-cysteinyl] -7(Z)-eicosen-1,5-diol hemihydrate]", "values": [{"measurement": "inhibition at 100 µM", "setting": "[3]", "result": 40, "unit": "%"}]}, {"smiles": "CCCCCCCCCCCC/C=C\\[C@@H](SC[C@H](NC(C)=O)C(=O)OC)C(CCCCO)=NO", "note": "[Compound 14, Methyl N-acetyl-S-6-[(5S,6R)-1-hydroxy-5-oximino-7(Z)-eicosenyl]-(R)-cysteinate]", "values": [{"measurement": "inhibition at 100 µM", "setting": "[3]", "result": 58, "unit": "%"}, {"measurement": "Percent Inhibition of the Hydrolytic Activity of Porcine Pancreas Phospholipase A2", "setting": "[2]; at 10^-4M, 100 µM", "result": 73, "unit": "%"}, {"measurement": "inhibition at 100 µM", "setting": "[2]; at 10^-4M, read-out: Percent Inhibition of the Hydrolytic Activity of Porcine Pancreas Phospholipase A2", "result": 72, "unit": "%"}]}]}
